Values quoted from earlier work as cited in patent publication US20150031700A1, “Methods of Treating Cutaneous Flushing Using Selective Alpha-2-adrenergic Receptor Agonists” (GALDERMA LABORATORIES INC., priority 2003, published 2015).

Assays:
α2 adrenergic receptor [1] = conditions: α2 vs α1 adrenergic receptor, compared with clonidine
α2 adrenergic receptor [2] = conditions: compared with clonidine; Burke et al., 1996
[3] = toxicity studies; Walters, 1996

selectivity for the α2 adrenergic receptor relative to clonidine (α2 adrenergic receptor [1]) | Compound | α2 adrenergic receptor activity relative to clonidine (α2 adrenergic receptor [2]) | oncogenic or teratogenic activity [3] | toxicity [3]
7-12 fold | Brc1c(NC2=NCCN2)ccc2nccnc12 [brimonidine] | – | – | –
– | brimonidine tartrate | 10 fold | no oncogenic or teratogenic activity | nontoxic
